In patent US12492224B2, “Bicyclic peptide ligands specific for PD-L1” (BicycleTx Limited, priority 2018, dated 2025):
Where no end group is shown, it is not given here. [ ]: non-standard residue; d: D form. hArg = N=C(N)NCCCC[C@H](N)C(=O)O; Aad = N[C@@H](CCCC(=O)O)C(=O)O; Nva = CCC[C@H](N)C(=O)O

Each substance was assayed against T1, PD-1/PD-L1 interaction (Homo sapiens, UniProt Q9NZQ7) (assay: PD-1/PD-L1 Blockade Bioassay (Jurkat PD-1 NFAT-luciferase / CHO-K1 PD-L1)). Settings: FIG. 1 and Table 6.
T1 construct: host or cells: CHO-K1 (human PD-L1) and Jurkat (human PD-1, NFAT-luciferase)
T1 sequence (Q9NZQ7 19-290): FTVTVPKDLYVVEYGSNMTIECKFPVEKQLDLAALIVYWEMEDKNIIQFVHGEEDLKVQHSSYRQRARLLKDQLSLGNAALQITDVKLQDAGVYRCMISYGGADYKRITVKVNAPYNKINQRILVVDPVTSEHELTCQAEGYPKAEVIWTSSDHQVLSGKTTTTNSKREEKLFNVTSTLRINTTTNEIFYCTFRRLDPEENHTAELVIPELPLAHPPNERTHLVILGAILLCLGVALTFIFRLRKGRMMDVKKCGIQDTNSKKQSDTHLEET
Type: cell-based
Procedure: Effector Jurkat cells engineered to overexpress human PD-1 and express a luciferase gene under the NFAT response element were purchased from Promega. Target CHO-K1 cells which overexpress human PD-L1 and an engineered cell surface protein designed to activate the Jurkat's T cell receptor in an antigen-independent manner were also purchased from Promega. CHO-K1 cells were plated the day before the assay in Ham's F-12 Medium+10% FBS and were allowed to adhere to the plate. On the day of the assay, media was removed and Jurkat cells were plated with a dose response of test articles in RPMI1640 media with 1% FBS (80 μL total volume per well). […] After 6 hours of incubation at 37° C., 5% CO2, 80 μL of Bio-Glo reagent (Promega) was added to each well and allowed to equilibrate for 10 minutes at room temperature. Luminescence was read on the Clariostar plate reader (BMG LabTech). Fold induction was calculated by dividing the luminescence signal by the average of the background wells (wells with both cell lines and no test article). Data was graphed in Prism and fit to a 4-parameter logistic curve.

Question: With [Ac]SDKCSAGWLTMCKQLNLCPSH [BCY10467] as the substance, how does the “ability to block PD-1/PD-L1 interaction between PD-1 expressing T cells and CHO-K1 stable expressing PD-L1” value (“ability” for short) read?
Answer: Its value is “demonstrated the ability to block PD-1/PD-L1 interaction”.

Question: Which “ability” value does the source give for “[Ac]SDKCSAGWLTMCKQLNLCPSH-COOH [BCY10939]” here?
Answer: The value was “demonstrated the ability to block PD-1/PD-L1 interaction”.

Question: Which “ability” value does the source give for “[Ac]SD[HArg]CS[Nle]GWLT[hPhe]CLKL[Aib]LCPSH [BCY10959]” here?
Answer: The value was “demonstrated the ability to block PD-1/PD-L1 interaction”.

What follows are substances tested against T2, human PD-L1 (Homo sapiens, UniProt Q9NZQ7) (assay: PD-L1 SPR Binding Assay (Biacore), human). Settings: 25° C.
T2 construct: purchased Sino Biologicals or R&D systems
T2 sequence (Q9NZQ7 19-290): as the sequence (Q9NZQ7 19-290) above
Procedure: The protein was desalted to remove uncoupled biotin using spin columns into PBS. For analysis of binding, a Biacore 3000 instrument was used utilizing a CM5 sensor chip (GE Healthcare). Streptavidin was immobilized on the chip using standard amine-coupling chemistry at 25° C. with HBS-N (10 mM HEPES, 0.15 M NaCl, pH 7.4) as the running buffer. The carboxymethyl dextran surface was activated with a 12 min injection of a 1:1 ratio of 0.4 M 1-ethyl-3-(3-dimethylaminopropyl) carbodiimide hydrochloride (EDC)/0.1 M N-hydroxy succinimide (NHS) at a flow rate of 10 μl/min. For capture of streptavidin, protein was diluted to 0.1 mg/ml in 10 mM sodium acetate (pH 4.5) and captured by injecting 70 μl onto the activated chip surface. Residual activated groups were blocked with a 7 min injection of 1 M ethanolamine (pH 8.5). Biotinylated PD-L1 stock was diluted 1:100 in HBS-N and captured on one flow cell at 5 μl/min to a level of 1000-1300 RU. Buffer was changed to PBS/0.05% Tween 20 and a dilution series of the peptides was prepared in this buffer with a final DMSO concentration of 0.5%. The top concentrations were 200 nM or 500 nM with 6 2-fold dilutions. The SPR analysis was run at 25° C. at a flow rate of Flow rate 50 μl/min with 60 seconds association and 400 seconds disassociation. Data were corrected for DMSO excluded volume effects. All data were double-referenced for blank injections and reference surface using standard processing procedures and data processing and kinetic fitting were performed using Scrubber software, version 2.0c (Biologic Software). Data were fitted using mass transport model allowing for mass transport effects where appropriate.

Question: With “Ac-EKCS[Aad]GWLTMCLKLHLC (cysteine pairing not given here) [BCY11826]” as the substance, how does the Kd read?
Answer: The Kd was 18.2 nM.

Question: With “Ac-KCS[Aad]GWLTMCLKLHLC (cysteine pairing not given here) [BCY11824]” as the substance, how does the Kd read?
Answer: The Kd was 60 nM.

Question: Which Kd does the source give for SDKCS[Aib]GWLTMCQKLHLCA [BCY10054] here?
Answer: Its Kd is 31.2 nM.

Question: How did the Kd turn out when “Ac-[hArg]CS[Aad]GWLTMCLKLHLC (cysteine pairing not given here) [BCY11827]” was run?
Answer: Its Kd is 30 nM.

Question: For SDKCSAGWLTMCQK[Nle]HLCA [BCY10071], which Kd is on record?
Answer: Its Kd is 58.2 nM.

Question: With Ac-SDKCS[Aad]GWLTMCLKLHLCA [BCY11828] as the substance, how does the Kd read?
Answer: Its Kd is 16.6 nM.

Question: With “SDKCSAGWLTMCQK[Nva]HLCA (cysteine pairing not given here) [BCY10084]” as the substance, how does the Kd read?
Answer: The Kd was 43.2 nM.

Question: How did the Kd turn out when SDKCS[Nle]GWLTMCQKLHLCA [BCY10062] was run?
Answer: Its Kd is 23 nM.

Question: SDKCSAGWLTMCQ[Nle]LHLCA [BCY10068] was tested. Which Kd did it give?
Answer: The Kd was 54.5 nM.

Question: SDKCSAGWLTMCQKLH[Nva]CA [BCY10083] was tested. Which Kd did it give?
Answer: Its Kd is 75 nM.

Question: Which Kd does the source give for SDKCS[Abu]GWLTMCQKLHLCA [BCY10055] here?
Answer: Its Kd is 27.9 nM.

Question: How did the Kd turn out when SDKCSAGWLTMCQKLH[Nle]CA [BCY10074] was run?
Answer: Its Kd is 36.1 nM.

Question: With SDKCSAGWLTMC[Chg]KLHLCA [BCY10066] as the substance, how does the Kd read?
Answer: Its Kd is 14.4 nM.

Question: Which Kd does the source give for SDKCSAGWLTMCQKL[Aib]LCA [BCY10073] here?
Answer: Its Kd is 15.8 nM.

Question: For “Ac-SEKCS[Aad]GWLTMCLKLHLC (cysteine pairing not given here) [BCY11825]”, which Kd is on record?
Answer: The Kd was 28.8 nM.

Question: With “Ac-SEKCS[Aad]GWLTMCLKLHLCPSH (cysteine pairing not given here) [BCY11831]” as the substance, how does the Kd read?
Answer: The Kd was 13.2 nM.

Question: Which Kd does the source give for SDKCSAGWLT[Nle]CQKLHLCA [BCY10058] here?
Answer: The Kd was 59.7 nM.

Question: Which Kd does the source give for “Ac-DKCS[Aad]GWLTMCQKLHLCPSH-COOH [BCY11853]” here?
Answer: Its Kd is 17.6 nM.

Question: With SD[HArg]CSAGWLTMCQKLHLCA [BCY10052] as the substance, how does the Kd read?
Answer: The Kd was 22.3 nM.
